# Data taken from US12594282B2, “Use of small molecule compounds in the treatment of diseases mediated by lung epithelial cell injury and/or vascular endothelial cell injury” (Guangzhou Cellprotek Pharmaceutical Co., Ltd., priority 2020, dated 2026).
# Peptide text beside a SMILES is read from it. * marks the point of attachment. Cbz = O=C(OCc1ccccc1)*
# Assays:
# PFKFB3 = conditions: mouse model of LPS-induced pulmonary fibrosis; cited from earlier work
# [1] = test system: human alveolar epithelial A549 cells; conditions: A549 cells in vitro; cited from earlier work
# NR4A3 [2] = assay: NR4A3 protein expression under OGD-R, RAOEC (Western blot, immunofluorescence); format: cell-based, rat; conditions: for degradation of NR4A3 during restoration injury: given together with CHX 100 μM, MG132 10, 30, 100 nM, CQ 10, 30, 100 μM
# Method: (§1) HUVEC cells were cultured in modified DMEM medium containing 10% fetal bovine serum. When the cells reached about 80% confluence, the cells were digested with 0.25% trypsin, and then pipetted evenly with modified DMEM containing 10% […]. The cell concentration was adjusted to 1×10^5 cells/mL, and the cells were seeded at 400 uL/well in a 24-well plate, and the experiment was carried out when the cells grew to about 70% confluence. RAOEC cells were cultured in high-glucose DMEM medium containing 10% fetal bovine serum, and the seeding conditions were the same as those of HUVEC. During the OGD-R injury treatment, the hypoxia workstation was set to have an oxygen concentration of 1% (1% O2, 5% CO2, 94% N2), a temperature of 37° C., and a humidity of 85%. A sugar-free DMEM medium was placed in the hypoxia workstation for pre-hypoxia for 3 hours. The medium in the culture plate was aspirated, and the plate was washed twice with preheated sugar-free DMEM medium, and 100 uL of sugar-free DMEM medium was added to each well. The culture plate was placed in the hypoxia workstation, and 300 uL of pre-hypoxic sugar-free DMEM medium was added to each well, and then the culture plate was placed in the hypoxia workstation for additional hypoxia for 4 hours. Restoration was then performed. The culture plate was taken out, and the sugar-free DMEM medium was replaced with 400 uL of normal medium containing 10% fetal bovine serum, and then the plate was placed in a 37° C. 5% CO2 cell incubator for culturing for 24 hours or a specified time period. For the cells in the normal group, it was only replaced with 400 uL of new normal medium containing 10% fetal bovine serum. […]
# (§2) The cells were washed twice with pre-cooled PBS, then scraped off with a cell scraper and transferred to a 1.5 mL centrifuge tube, and centrifugation was performed at 4° C. and 1000 g for 5 minutes. […] Each protein sample was then quantified using the BCA protein quantification kit. After protein quantification, protein lysis buffer was used to adjust the protein concentration of each sample to be consistent with the protein sample with the lowest concentration, and then each protein sample was sufficiently mixed with 5× protein loading buffer at a ratio of 4:1. […]
# NR4A3 [3] = assay: NR4A3 protein expression under OGD-R, HUVEC (Western blot, immunofluorescence); format: cell-based, human; conditions: for degradation of NR4A3 during restoration injury: given together with CHX 100 μM, MG132 10, 30, 100 nM, CQ 10, 30, 100 μM
# Method: as §1, §2
# NR4A3 [4] = assay: NR4A3 ubiquitination after OGD-R in vascular endothelial cells (immunoprecipitation with anti-ubiquitin antibodies); format: cell-based; conditions: YC-6 10 μM; MG132 100 nM; given at restoration
# Method: as §1
# The cells were washed twice with pre-cooled PBS, then scraped off with a cell scraper and transferred to a 1.5 mL centrifuge tube, and centrifugation was performed at 4° C. and 1000 g for 5 minutes. […] Each protein sample was then quantified using the BCA protein quantification kit. After protein quantification, IP lysis buffer was used to adjust the protein concentration of each sample to 1 mg/mL. […]
# [5] = 100 μM given during restoration after OGD
compound,measurement,setting,value
O=C(/C=C/c1cccnc1)c1ccncc1 [3PO],upregulation of PFKFB3 expression and enhanced aerobic glycolysis,PFKFB3,could reverse the significant upregulation of PFKFB3 expression and enhanced aerobic glycolysis
same,"LPS-induced apoptosis, inflammatory cytokine production, enhanced glycolytic flux and increased ROS",[1],reversed
"CCN(CC)CCCC(C)Nc1ccnc2cc(Cl)ccc12 (stereo not drawn) [CQ, Chloroquine]",degradation of NR4A3 during restoration injury,NR4A3 [2],did not significantly inhibit the degradation of NR4A3
same,degradation of NR4A3 during restoration injury,NR4A3 [3],did not significantly inhibit the degradation of NR4A3
"C[C@@H]1C[C@@H]([C@H](O)CC2CC(=O)NC(=O)C2)C(=O)[C@@H](C)C1 [CHX, Cycloheximide]",NR4A3 protein level during restoration,NR4A3 [2]; [5],almost complete depletion of NR4A3 protein
same,NR4A3 protein level during restoration,NR4A3 [3]; [5],almost complete depletion of NR4A3 protein
CC(C)C[C@@H](C=O)NC(=O)[C@H](CC(C)C)NC(=O)[C@H](CC(C)C)NC(=O)OCc1ccccc1 [MG132] (Cbz-Leu-Leu-Leu-aldehyde),degradation of NR4A3 during restoration injury,NR4A3 [2],could inhibit the degradation of NR4A3
same,ubiquitination modification of NR4A3 induced by restoration,NR4A3 [4],increase of ubiquitinated NR4A3
same,degradation of NR4A3 during restoration injury,NR4A3 [3],could inhibit the degradation of NR4A3
